Source: patent US8829014B2, “Thiazole and thiophene analogues, and their use in treating autoimmune diseases and cancers” (Board of Supervisors of Louisiana State University and …, priority 2006, dated 2014)

Key:
AP-1 [1] = assay: AP-1 inhibitor screen: basal AP-1-dependent luciferase expression in HEK/AP-1 cell line; type: cell-based; details: 1 uM, determined as described in Example 398; for inhibition at 1 µM: AP1
Source text: (§1) Development of NF-κB and AP-1 Screens: Two HEK293 cell lines were purchased from Panomics. One cell line was stably transfected with a plasmid in which luciferase expression is regulated by six copies of the NF-κB transcriptional element (5′-[…]-3′); and the other cell line was stably transfected with a plasmid in which luciferase expression is regulated by three copies of the AP-1 transcriptional element (TGACTAA). To test the biological activity of the promoters, the HEK/NF-κB cell line was stimulated with TNF-α (20 ng/ml) for 24 hours, and the HEK/AP-1 cell line was stimulated with PMA (10 ng/ml) for 24 hours.
HEK cells were stably transfected with a plasmid expressing luciferase under the control of the AP-1 promoter. The transfected cells were plated on a 96-well plate for 24 hr. Then 1.0 μM of each compound in DMSO (0.3%) was added to triplicate wells and incubated for 48 hr. DMSO (0.3%) was added to one set of triplicate wells as a control. Luciferase activity was determined using Promega's Brite-Glo kit, and the mean for each sample was normalized to that for DMSO.
Screening was carried out as described above, monitoring the compounds' effects on basal AP-1-dependent luciferase expression. Each dose-response experiment was carried out in triplicate and repeated between two and four times.

NF-κB [2] = assay: NF-κB inhibitor screen: basal NF-κB-dependent luciferase expression in HEK/NF-κB cell line; type: cell-based; details: 1 uM, determined as described in Example 398; for inhibition at 1 µM: read-out: NFkB inhibition @ 1 uM
Source text: as §1, with “hours. […] In addition, a pyrimidine carboxyimide that had previously been shown (ref. 58) to be an inhibitor of transcription mediated by NF-κB and AP-1 reduced luciferase activity by approximately 40% in each of the NF-κB and AP-1 cell lines.” for “hours.”
The above two assays analyzed the effects of the compounds on post-transcriptional gene regulation, which is known to play a key role in cancer and inflammation. By contrast, the NF-κB assay and the following assay (AP-1) test whether the compounds act at the transcriptional level. Thirty-nine representative compounds were screened in an HEK/NF-κB cell line. HEK cells were stably transfected with a plasmid expressing luciferase under the control of the NF-κB promoter. These transfected cells were plated on a 96-well plate. As above, initial screening was carried out at 1.0 μM by adding compound in DMSO (0.3%) twenty-four hours after plating. Each compound was added to each of triplicate wells. DMSO (0.3%) was added to one set of wells as a control. Luciferase activity was determined using Promega's Brite-Glo kit, and the mean for each sample was normalized to that for DMSO.
The fourteen representative compounds identified in the eIF4E screen as interesting (Numbered 2, 3, 4, 6, 8, 11, 15, 20, 21, 24, 25, 32, 33, and 35) were then tested for luciferase activity in a six-point dose response (10 nM, 33 nM, 100 nM, 330 nM, 1000 nM, and 3300 nM). Screening was carried out as described above by monitoring the effects of the compounds on basal NF-κB-dependent luciferase expression. Each dose was used out in triplicate, and repeated between two and four times. Results were normalized by the average expression level at the lowest concentration level, as described above.

NF-κB [3] = assay: TNF-α-induced NF-κB-dependent luciferase expression in HEK cells; type: cell-based; details: luciferase in HEK/NF-κB cells, as described in Example 398; for inhibition at 1 µM: Homo sapiens, HEK293, 1 uM, read-out: NFkB inhibition @ 1 uM
carageenan-induced edema = assay: Carrageenan-induced rat paw edema test (anti-inflammatory activity); type: in vivo, Sprague-Dawley rats
Summary of the method: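 Sprague-Dawley rats (male and female, 150-250 g), fasted 18 h, given compound orally at 50 mg/kg in 0.1% sodium CMC (alternatively i.v., s.c. or i.p.). 1% carrageenan injected sub-plantar in right hind paw 1 h later. Paw displacement read again 3 h later; % protection = [(Control−Test)/Control]×100 versus saline control.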

AP-1 [4] = assay: PMA-induced AP-1 luciferase expression in HEK cells; type: cell-based; details: luciferase in HEK/AP-1 cells, as described in Example 398; for inhibition at 1 µM: AP1, 1 uM
[5] = Rattus norvegicus, po, 3 h, rat paw edema, 50 mg/kg, reading 3 hours after carrageenan; [(Control−Test)/Control]×100%; read-out: % Protection P
[6] = rat paw edema, 50 mg/kg, reading 3 hours after carrageenan; [(Control−Test)/Control]×100%

Row | Compound | inhibition at 1 µM (NF-κB [3]) | inhibition in vivo at 50 mg/kg (carageenan-induced edema; [5]) | inhibition at 1 µM (AP-1 [4]) | also measured
1 | COC(=O)Nc1nc(-c2ccccc2)c(-c2nc3ccccc3c(=O)n2-c2ccc(C(C)=O)cc2)s1 [Example 265, [5-(4-Oxo-3-(4-acetyl-phenyl)-3,4-dihidro-quinazolin-2-yl)-4-phenyl-thiazol-2-yl]-carbamic acid methyl ester] |  |  |  | AP-1 inhibition @ 1 uM (AP-1 [1]): 16; NFkB inhibition @ 1 uM (NF-κB [2]): 0
2 | Cc1ccc(Nc2nc(-c3ccccc3)c(-c3nc4ccccc4c(=O)n3-c3ccc(Cl)cc3)s2)cc1 [Example 257, 2-[2-(4-Methyl-phenylamino)-4-phenyl-thiazol-5-yl]-3-(4-Chloro-phenyl)-3H-quinazolin-4-one] |  |  |  | inhibition at 1 µM (AP-1 [1]): -51%; inhibition at 1 µM (NF-κB [2]): -10%
3 | CCOC(=O)Nc1nc(C)c(-c2nc3ccccc3c(=O)n2-c2ccccc2C)s1 [Example 166, [4-Methyl-5-(4-oxo-3-o-tolyl-3,4-dihidro-quinazolin-2-yl)-thiazol-2-yl]-carbamic acid ethyl ester] |  |  |  | AP-1 inhibition @ 1 uM (AP-1 [1]): 14; NFkB inhibition @ 1 uM (NF-κB [2]): 21
4 | {5-[3-(3-Methoxy-phenyl)-4-oxo-3,4-dihydro-quinazolin-yl]-thiazol-2-yl}-carbamic acid ethyl ester [Example 209] |  |  |  | AP-1 inhibition @ 1 uM (AP-1 [1]): 5; NFkB inhibition @ 1 uM (NF-κB [2]): 29
5 | COc1ccc(-n2c(-c3sc(NC(=O)c4ccc(C)cc4)nc3-c3ccccc3)nc3ccccc3c2=O)cc1 [Example 223, 4-Methyl-N-[5-(4-oxo-3-(4-methoxyphenyl)-3,4-dihydroquinazolin-2-yl)-4-phenyl-thiazol-2-yl]-benzamide] |  |  |  | inhibition at 1 µM (AP-1 [1]): -28%; inhibition at 1 µM (NF-κB [2]): -24%
6 | 2-[2-(1-Furan-2-yl-vinylamino)-4-phenyl-thiazol-5-yl]-3-(4-Chloro-phenyl)-3H-quinazolin-4-one [Example 255] |  |  |  | AP-1 inhibition @ 1 uM (AP-1 [1]): 7; NFkB inhibition @ 1 uM (NF-κB [2]): 0
7 | Nc1nc(Nc2ccc(Cl)cc2)sc1C(=O)c1cccnc1 [Example 338, (4-Amino-2-(4-chlorophenylamino)-thiazol-5-yl)-pyridin-3-yl-methanone] | -84.1% | 25.8% | -89.1% | 
8 | O=c1c2ccccc2nc(-c2cc(-c3ccccc3)c(N3CCOCC3)s2)n1-c1ccc(Cl)cc1 [Example 309, 3-(4-Chloro-phenyl)-2-(5-morpholin-4-yl-4-phenyl-thiophen-2-yl)-3H-quinazolin-4-one] | 0% | 66% | 2% | 
9 | N-{4-[4-(4-Chloro-phenyl)-5-morpholin-4-yl-thiophen-2-carbonyl]-phenyl}acetamide [Example 85] |  |  |  | NFkB inhibition @ 1 uM (NF-κB [3]): −17.34; % Protection P (carageenan-induced edema; [6]): 20%; AP-1 inhibition @ 1 uM (AP-1 [4]): 22.58
10 | CSc1ccc(C(=O)c2cc(-c3cccnc3)c(N3CCOCC3)s2)cc1 [Example 107, (4-Methylsulfanyl-phenyl)-(5-morpholin-4-yl-4-pyridin-3-yl-thiophen-2-yl)-methanone] |  |  |  | NFkB inhibition @ 1 uM (NF-κB [3]): 1.69; % Protection P (carageenan-induced edema; rat paw edema, 50 mg/kg, reading 3 hours after carrageenan; [(Control−Test)/Control]×100%; 50 mg/kg): −42.44%; AP-1 inhibition @ 1 uM (AP-1 [4]): 19.05
11 | CNc1nc(-c2ccccc2)c(C(=O)c2sc(NC)nc2-c2ccccc2)s1 [Example 125, Bis-(2-methylamino-4-Phenyl-thiazole-5-yl)-methanone] | 27.1% | 23.2% | 23.8% | 
12 | CC(=O)Nc1ccc(-c2cc(-c3nc4ccccc4c(=O)n3-c3ccc(Cl)cc3)sc2N2CCOCC2)cc1 [Example 311] |  |  |  | NFkB inhibition @ 1 uM (NF-κB [3]): 0; % Protection P (carageenan-induced edema; [6]): 28%; AP-1 inhibition @ 1 uM (AP-1 [4]): 17
13 | CS(=O)(=O)c1ccc(-c2cc(C(=O)c3ccncc3)sc2N2CCOCC2)cc1 [Example 63, [4-(4-Methanesulfonyl-phenyl)-5-morpholin-4-yl-thiophene-2-yl]-pyridin-4-yl-methanone] | 10.5% | 50% | 5.71% | 
14 | CC(=O)Nc1ccc(C(=O)c2cc(-c3ccc(NC(C)=O)cc3)c(N3CCOCC3)s2)cc1 [Example 73, N-{4-[5-(4-acetylamino-benzoyl)-2-morpholin-4-yl-thiophene-3-yl]-phenyl}-acetamide] | -28.6% | -23.5% | 19.9% | 
15 | COc1ccc(Nc2nc(N)c(-c3nccc(OCC(F)(F)F)c3C)s2)cc1 [Example 353, (N2-(4-Methoxy-phenyl)-5-[3-Methyl-4-(2,2,2-trifluoro-ethoxy)-pyridin-2-yl]-thiazole-2,4-diamine)] | 59.1% | 82.5% | 62% | 
16 | Cc1nc(Nc2ccccc2)sc1C(=O)c1sc(Nc2ccccc2)nc1C [Example 119, Bis-(4-methyl-2-phenylamino-thiazole-5-yl)-methanone] | 8.39% | 45.5% | 26% | 
17 | Cc1ccc(C(=O)c2sc(Nc3ccc(Cl)cc3)nc2NC(=O)Nc2ccc(F)cc2)cc1 [Example 356, 1-[2-(4-Chloro-phenylamino)-5-(4-methyl-benzoyl)-thiazol-4-yl]-3-(4-fluoro-phenyl)-urea] | 54.6% | 69.5% | 48.4% | 
18 | Cc1c(OCC(F)(F)F)ccnc1-c1sc(N2CCN(C(=O)c3ccco3)CC2)nc1-c1ccco1 [Example 379, Furan-2-yl-(4-{4-furan-2-yl-5-[3-methyl-4-(2,2,2-trifluoro-ethoxy)-pyridin-2-yl]-thiazol-2-yl}-piperazin-1-yl)-methanone] | 51.1% | 62.4% | 3.23% | 
19 | CSc1ccc(C(=O)c2cc(-c3ccc(NC(C)=O)cc3)c(N3CCOCC3)s2)cc1 [Example 71, N-{4-[5-(4-Methansulfanyl-benzoyl)-2-morpholin-4-yl-thiophene-3-yl]-phenyl}-acetamide] |  |  |  | NFkB inhibition @ 1 uM (NF-κB [3]): 7.6; % Protection P (carageenan-induced edema; [6]): 2.5%; AP-1 inhibition @ 1 uM (AP-1 [4]): 27.75
20 | COc1ccc(C(=O)c2sc(Nc3ccc(Cl)cc3)nc2N)cc1 [Example 332, [4-Amino-2-(4-chloro-phenylamino)-thiazol-5-yl]-(4-methoxy-phenyl)-methanone] | 0.13% | 36% | -32.2% | 
21 | Bis-[2-(2-furoyl-amino)-4-benzayl-thiazole-5-yl]-methanone [Example 136] |  |  |  | NFkB inhibition @ 1 uM (NF-κB [3]): 44.46; % Protection P (carageenan-induced edema; [6]): 45.13%; AP-1 inhibition @ 1 uM (AP-1 [4]): 32.23
22 | Bis-[4-(4-chloro-phenyl)-5-morpholin-4-yl-thiophen-2-yl]-methanone [Example 114] |  |  |  | NFkB inhibition @ 1 uM (NF-κB [3]): −39.23; % Protection P (carageenan-induced edema; [6]): 30.55%; AP-1 inhibition @ 1 uM (AP-1 [4]): −70.59
